Here are results for twelve compounds from publication PMC10496295, “In vitro cytotoxic effect of stigmasterol derivatives against breast cancer cells” (BMC Complementary Medicine and Therapies, 2023).

Data set [1] has as its system MCF-12 A non-tumorigenic breast epithelial cell line. Description: resazurin cytotoxicity assay, MCF-12 A cells. The format is cell-based. The conditions noted are these: Homo sapiens.
Data set [2] has as its system MCF-7 hormone receptor-positive breast cancer cell line. Description: resazurin cytotoxicity assay, MCF-7 cells. The format is cell-based. As to conditions: for SI (selectivity index), MCF-7: EC50 against MCF12A cells ÷ EC50 against MCF-7 cells; for EC50: Homo sapiens.
In data set [3] the test system is HCC70 triple negative breast cancer cell line. The experiment in a line: resazurin cytotoxicity assay, HCC70 cells. As to conditions: for SI (selectivity index), HCC70: EC50 against MCF12A cells ÷ EC50 against HCC70 cells; for EC50: Homo sapiens. It counts as cell-based.
Data set [4] concerns human breast cancer MCF-7 cell line. Further details: method as in PMID 33839518. As to conditions: read-out: IC50 against MCF-7 cell line; cited from earlier work.
The test system of data set [5] is human gastric cancer cell line SNU-1. As to conditions: read-out: IC50, SNU-1 proliferation; cited from earlier work.
Data set [6] concerns human ovarian cancer cells ES2. Also noted: method as in PMID 32481565. The conditions noted are these: treatment concentration 20 µg/mL; cited from earlier work.
In data set [7] the test system is human ovarian cancer cells OV90. Also noted: method as in PMID 32481565. As to conditions: treatment concentration 20 µg/mL; cited from earlier work.
The test system of data set [8] is oxidative burst of the whole blood. Further details: method as in PMID 23136063. As to conditions: cited from earlier work.
In data set [9] the test system is U937 human monocytic cell line. Further details: method as in PMID 20828195. As to conditions: cited from earlier work; for reduction in cell viability / level of cell death compared to the untreated control: p < 0.05; for level of cell death compared to the untreated control: FDA/EtBr staining.
Where [10] appears, read: MCF-12A, 96 h, read-out: EC50 and Standard deviation, MCF-12 A, MCF-12 A cells, 96 h treatment, resazurin assay.
The mark [11] stands for this setting: MCF7, 96 h, read-out: EC50 and Standard deviation, MCF-7, MCF-7 cells, 96 h treatment, resazurin assay.
The mark [12] stands for this setting: HCC70, 96 h, read-out: EC50 and Standard deviation, HCC70, HCC70 cells, 96 h treatment, resazurin assay.
[13] abbreviates: MCF-12 A cells, 96 h treatment, resazurin assay, read-out: EC50 and Standard deviation, MCF-12 A.
The mark [14] stands for this setting: MCF7, MCF-7 cells, 96 h treatment, resazurin assay, read-out: EC50 and Standard deviation, MCF-7.
Where [15] appears, read: HCC70 cells, 96 h treatment, resazurin assay, read-out: EC50 and Standard deviation, HCC70.

Read-outs that look alike come from different tables or passages of the source. Bounds are passed on as bounds.

As for `CC[C@@]1(O)C(=O)OCc2c1cc1n(c2=O)Cc2cc3ccccc3nc2-1` [Camptothecin, reference compound], the EC50 in data set [1] (MCF-12 A cells, 96 h, resazurin assay, positive control, row unit nM, read-out: EC50 and Standard deviation, MCF-12 A) amounted to 104.2 ± 1.03 nM; in [2] (MCF7, MCF-7 cells, 96 h, resazurin assay, positive control, row unit nM, read-out: EC50 and Standard deviation, MCF-7), 104 ± 9.92 nM; in data set [3] (HCC70 cells, 96 h, resazurin assay, positive control, row unit nM, read-out: EC50 and Standard deviation, HCC70), 83.2 ± 1.08 nM. Further, the “SI (selectivity index), MCF-7” value in [2] was 1.00. Besides, in [3], the “SI (selectivity index), HCC70” value turned out to be 1.25.

For `CC[C@H](C=C[C@@H](C)[C@H]1CC[C@H]2[C@@H]3CC=C4C[C@@H](O)CC[C@]4(C)[C@H]3CC[C@]12C)C(C)C` [Compound 1, stigmasta-5,22-dien-3β-ol], the half-maximal effective concentration (EC50) in [1] (setting [10]), in data set [2] (setting [11]) and in data set [3] (setting [12]) was above 250000 nM each time. Moreover, the IC50 was 0.162 µM in data set [4] and 15 µM in data set [5]. In data set [6], the “reduction of growth of ES2 cells” value was 50%. Besides, the “reduction of growth of OV90 cells” value in data set [7] is 50%.

`CC[C@H](/C=C/[C@@H](C)C1CCC2C3CC=C4C[C@@H](OC(C)=O)CC[C@]4(C)C3CC[C@@]21C)C(C)C` (stereo partly drawn) [Compound 2, Stigmasterol acetate] showed a melting point of 139 to 141 °C. Moreover, the concentration giving a half-maximal response (EC50) in [1] (setting [10]) was above 250000 nM. Further, the EC50 in data set [2] (setting [11]) was above 250000 nM. In addition, the EC50 in data set [3] (setting [12]) was above 250000 nM.

Take `CC[C@H](C=C[C@@H](C)[C@H]1CC[C@H]2[C@@H]3C(=O)C=C4CC(=O)CC[C@]4(C)[C@H]3CC[C@]12C)C(C)C` [Compound 3, Stigmasta-5,22-dien-3,7-dione]: the melting point fell in the range of 152 to 155 °C. Also, the EC50 in data set [1] (setting [13]) amounted to 30200 ± 1240 nM. Moreover, the “SI (selectivity index), MCF-7” value in data set [2] is reported as 0.70. The EC50 in data set [2] (setting [14]) was 42800 ± 1320 nM. Besides, the “SI (selectivity index), HCC70” value in data set [3] came to 0.45. Moreover, the concentration for a half-maximal effect (EC50) in data set [3] (setting [15]) worked out at 67700 ± 1260 nM. Further, the IC50 in data set [8] is 15.6 ± 2.1 µM.

Consider `CC[C@H](C=C[C@@H](C)[C@H]1CC[C@H]2[C@@H]3CC4OC45C[C@@H](O)CC[C@]5(C)[C@H]3CC[C@]12C)C(C)C` (stereo partly drawn) [Compound 4, 5,6-Epoxystigmast-22-en-3β-ol], for which the melting point was in the range of 142 to 145 °C. Also, the concentration for a half-maximal effect (EC50) in data set [1] (setting [13]) came to 47000 ± 1180 nM. Moreover, the concentration for a half-maximal effect (EC50) in data set [2] (setting [14]) worked out at 21900 ± 1320 nM. Moreover, the “SI (selectivity index), HCC70” value in data set [3] came to 0.28. The EC50 in data set [3] (setting [15]) was determined as 165700 ± 1300 nM.

Regarding `CC[C@@H](C(C)C)C(O)C(O)[C@@H](C)C1CCC2C3CC4OC45C[C@@H](O)CC[C@]5(C)C3CC[C@@]21C` (stereo partly drawn) [Compound 5, 5,6-Epoxystigmasta-3β,22,23-triol], the results for the EC50 in data set [1] (setting [13]), in data set [2] (setting [14]) and in data set [3] (setting [15]) were 30200 ± 1280 nM, 44000 ± 1400 nM and 33700 ± 1330 nM, respectively. In addition, in data set [2], the “SI (selectivity index), MCF-7” value amounted to 0.69. Besides, the “SI (selectivity index), HCC70” value in data set [3] was found to be 0.90. Further, the “reduction in cell viability” value in data set [9] (U937 cells, 60 and 120 µM) is reported as “significantly reduced cell viability”. In addition, the “level of cell death compared to the untreated control” value in data set [9] (U937 cells) is reported as “significant”. Moreover, the “mode of cell death” value in [9] (U937 cells, staining with Hoechst 33,342) is listed as “apoptosis”.

`CC[C@@H](C(C)C)C(O)C(O)[C@@H](C)[C@H]1CC[C@H]2[C@@H]3CC(O)C4(O)C[C@@H](O)CC[C@]4(C)[C@H]3CC[C@]12C` (stereo partly drawn) [Compound 6, Stigmastane-3β,5,6,22,23-pentol] yielded a melting point of 201 to 204 °C. In addition, the 50% effective concentration (EC50) in [1] (setting [13]) amounted to 22600 ± 1220 nM. The “SI (selectivity index), MCF-7” value in data set [2] was 0.51. The EC50 in data set [2] (setting [14]) was 44100 ± 1400 nM. Further, the EC50 in data set [3] (setting [15]) is 16800 ± 1170 nM.

In turn, `CC[C@@H](C(C)C)C(O)C(O)[C@@H](C)[C@H]1CC[C@H]2[C@@H]3C(=O)C=C4CC(=O)CC[C@]4(C)[C@H]3CC[C@]12C` (stereo partly drawn) [Compound 7, Stigmasta-5-en-3,7-dion-22,23-diol] yielded a melting point of 137 to 140 °C. Also, the 50% effective concentration (EC50) in data set [1] (setting [13]) is 31600 ± 1120 nM. Further, the “SI (selectivity index), MCF-7” value in [2] is 1.36. Also, in data set [2] (setting [14]), the half-maximal effective concentration (EC50) came to 23200 ± 1080 nM. Further, the “SI (selectivity index), HCC70” value in data set [3] was 0.19. Further, the EC50 in data set [3] (setting [15]) came out at 170100 ± 1180 nM.

On to `CC[C@@H](C(C)C)C(O)C(O)[C@@H](C)C1CCC2C3C(=O)C(O)C4(O)CC(=O)CC[C@]4(C)C3CC[C@@]21C` (stereo partly drawn) [Compound 8, Stigmasta-3,7-dion-5,6,22,23-ol], for which the melting point lay in the range of 183 to 187 °C. For the same compound, the EC50 in data set [1] (setting [13]) was above 250000 nM. Besides, the EC50 in data set [2] (setting [14]) was above 250000 nM. Also, the half-maximal effective concentration (EC50) in [3] (setting [15]) was determined as 53200 ± 1060 nM.

For the compound `CC[C@@H](C(C)C)C(O)C(O)[C@@H](C)[C@H]1CC[C@H]2[C@@H]3CC=C4C[C@@H](O)CC[C@]4(C)[C@H]3CC[C@]12C` (stereo partly drawn) [Compound 9, Stigmast-5-ene-3β,22,23-triol], the EC50 in [1] (setting [13]) stood at 51800 ± 1130 nM; in [2] (setting [14]) it was 22900 ± 1090 nM; in data set [3] (setting [15]) it was 44500 ± 1130 nM. For the same compound, the “SI (selectivity index), HCC70” value in data set [3] was determined as 1.16. Further, in [9] (U937 cells, 30, 60 and 120 µM), the “reduction in cell viability” value is on record as “significant reduction”. Further, in data set [9] (U937 cells), the “level of cell death compared to the untreated control” value is “significant”. Further, the cell viability in data set [9] (U937 cells, highest concentration 120 µM) is recorded as 52.3%.

In the case of `N.N.[Cl][Pt][Cl]` [cisplatin, reference compound], the IC50 in data set [4] was 13.2 µM.

Turning to `CC(C)Cc1ccc(C(C)C(=O)O)cc1` (stereo not drawn) [ibuprofen, reference compound], the IC50 in data set [8] is 12.1 µM.
